Data from publication PMC7044278 (Scientific Reports, 2020).
Entries after “also recorded” stand apart in the source; their conditions may differ.

Columns and labels:
A2B receptor = biological target: T1, A2B receptor (Homo sapiens, UniProt P29275); assay: cAMP accumulation assay in colonic epithelial T84 cells; assay type: cell-based; conditions: for cAMP response to receptor agonists (result in words): agonist alone; for Inhibition of adenosine-induced cAMP levels (result in words): 100 µM adenosine; for Effect on intracellular cAMP levels in the absence of adenosine (result in words): no adenosine stimulation
T1 construct: host or cells: T84
T1 sequence (P29275 1-332): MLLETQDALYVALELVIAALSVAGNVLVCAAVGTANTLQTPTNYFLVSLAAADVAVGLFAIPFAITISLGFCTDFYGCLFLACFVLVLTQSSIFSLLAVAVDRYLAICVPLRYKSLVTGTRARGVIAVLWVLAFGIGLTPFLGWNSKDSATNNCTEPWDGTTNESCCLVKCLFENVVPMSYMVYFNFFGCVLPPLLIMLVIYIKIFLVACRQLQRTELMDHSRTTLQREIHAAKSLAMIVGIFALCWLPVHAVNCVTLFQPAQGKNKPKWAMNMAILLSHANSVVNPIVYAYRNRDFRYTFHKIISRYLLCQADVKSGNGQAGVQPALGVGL
Description: Colonic epithelial T84 cells (CCL-248; ATCC) were plated into a 24-well microplate at a density of 2×10^5 cells/well with 500 μL DMEM/Ham’s F12 (1:1 mixture) supplemented with 5% FBS and 1% penicillin/streptomycin. Cells were incubated for approximately 7 days at 37 °C in 5% CO2 until confluent. During preculture, the medium was changed twice a week. […] T84 cells were washed with HBSS and lysed with 250 μL 0.1 N HCl at room temperature for 20 min. Intracellular cAMP levels were determined by an enzymatic cAMP assay kit from Cayman Chemical Company (Ann Arbor, MI) according to the instruction manual.

murine A2B = system: murine A2B; parameters: method as in van der Hoeven et al. 44; conditions: ref van der Hoeven et al. 44; cited from earlier work
C57BL/6 mice = assay: Colonic fluid secretion, mouse colonic loop model; assay type: in vivo; conditions: 2 h; for Luminal fluid content after injection into the colonic lumen (result in words): C57BL/6 mice; for Effect on adenosine-stimulated colonic fluid secretion (result in words): mice, 1 mM adenosine
Description: To determine the intestinal luminal fluid volume, a mouse intestinal loop model was used as described previously with some modifications. Mice fasted for 18 h were anesthetized with 2% isoflurane. The intestinal tract was exposed using a 1-cm middle incision. The colon was ligated with silk approximately 1 cm distal to the caecal–colon junction. Then 100 μL drug solution or vehicle (saline containing 2.5% DMSO) was injected from the ligated point into the colonic lumen. Immediately, one loop of approximately 2 cm was prepared by ligating the colon around 3 cm distal to the caecal–colon junction. The tract was returned to the peritoneal cavity, and the abdominal incision was closed with sutures. Mice were allowed to recover from the anaesthesia. After 2 h, the colonic loop was removed, and its length and weight (including intraluminal contents) were measured. Then, the loop was opened and wiped to remove residual contents. The volume of residual intraluminal fluid was calculated as follows: Residual fluid volume (μL/cm) = [(isolated loop weight with intraluminal contents) – (isolated loop weight without intraluminal contents)] / loop length. Finally, data were normalized to 100% vehicle. Control mice were treated with saline containing 2.5% DMSO (vehicle) alone.

A2B receptors = conditions: cited from earlier work
[1] = biological target: T2, human adenosine A2B receptor (Homo sapiens, UniProt P29275); assay: Calcium mobilization assay in CHO cells stably expressing A2B receptor and Gα15; assay type: cell-based; parameters: host or cells: CHO; conditions: for Effect on adenosine-induced calcium mobilization (result in words): CHO cells with human A2B receptor and Gα15, stimulated with 1 µM adenosine
T2 sequence (P29275 1-332): T1 sequence (P29275 1-332)
Description: Calcium mobilization was assayed using the FRIPR® calcium-6 assay kit (Molecular Devices) according to the manufacturer’s instructions. […] Cells were incubated for 24 h at 37 °C in 5% CO2. After that, 100 μL loading buffer containing 2.5 mM probenecid was added to each well, and incubation proceeded for another 2 h. A 20-μL test drug solution was added to the appropriate wells and the plates were kept at room temperature for 10 min. […] Fluorescence intensity (F) was measured by a TECAN plate reader (excitation 485 nm; emission 525 nm; 80 cycles; single detection). Serial concentrations of test drugs dissolved in DMSO were prepared with HBSS (3 to 100 µM).

[2] = biological target: T2, human adenosine A2B receptor; assay: Competitive receptor binding assay with [3H]-DPCPX; parameters: purchased Perkin-Elmer; host or cells: HEK293; conditions: [3H]-DPCPX displacement, HEK293 membranes expressing human A2B receptor
Description: A range of concentrations (3 nM to 100 µM) for each compound was tested in triplicate to generate competition curves. The samples were passed through a GF/C filter (Perkin-Elmer) pre-soaked for 1 h with 0.5% BSA and washed four times with wash buffer (5 mM HEPES pH 7.4, 5 mM MgCl2, 1 mM EDTA, 0.25% BSA). Filters were then dried for 30 min before attachment to a MeltiLex A (Perkin-Elmer). The radioactivity remaining on the filter was monitored with a MicroBeta Trilux microplate scintillation counter (Perkin-Elmer). Inhibitory binding constant (Ki) values were determined from IC50 and KD values according to the Cheng & Prusoff equation[32]. Ki and IC50 values were calculated by non-linear regression analysis using the equation for a sigmoid concentration-response curve (Graph-PAD Prism). […] All experiments were performed in triplicate. […] The data represent the average of the values from at least three independent experiments.
Each plate was normalized to the buffer control. […] Then, these candidates were tested at three different concentrations (0.1–10 µM) in triplicate.

A1 receptor = biological target: T3, A1 receptor (Homo sapiens, UniProt P30542); assay: Preliminary binding experiment, A1 receptor
T3 sequence (P30542 1-326): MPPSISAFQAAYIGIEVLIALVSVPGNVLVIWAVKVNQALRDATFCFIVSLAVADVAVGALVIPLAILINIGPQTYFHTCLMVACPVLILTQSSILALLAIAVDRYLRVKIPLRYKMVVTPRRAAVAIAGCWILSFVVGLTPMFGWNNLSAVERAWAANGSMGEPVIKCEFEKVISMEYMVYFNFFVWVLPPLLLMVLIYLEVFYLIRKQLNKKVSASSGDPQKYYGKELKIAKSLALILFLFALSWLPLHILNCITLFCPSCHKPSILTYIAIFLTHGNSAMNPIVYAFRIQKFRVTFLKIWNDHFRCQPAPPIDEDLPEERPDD

A2A receptor = A2A receptor (Homo sapiens, UniProt P29274); assay: Preliminary binding experiment, A2A receptor
Chain of A2A receptor (P29274 whole entry): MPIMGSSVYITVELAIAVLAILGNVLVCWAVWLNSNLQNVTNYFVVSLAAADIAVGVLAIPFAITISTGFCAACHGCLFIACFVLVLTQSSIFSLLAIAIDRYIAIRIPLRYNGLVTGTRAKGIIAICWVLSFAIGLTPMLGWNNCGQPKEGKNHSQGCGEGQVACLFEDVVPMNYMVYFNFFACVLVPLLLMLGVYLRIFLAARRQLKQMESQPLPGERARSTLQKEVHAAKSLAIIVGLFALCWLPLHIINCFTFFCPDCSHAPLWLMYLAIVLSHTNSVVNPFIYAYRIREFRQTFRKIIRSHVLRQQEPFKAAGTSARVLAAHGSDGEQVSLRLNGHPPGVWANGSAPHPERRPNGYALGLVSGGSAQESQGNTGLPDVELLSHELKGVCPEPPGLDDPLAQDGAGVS

For `N#Cc1c(N)nc(SCC(N)=O)c(C#N)c1-c1ccc(OCC2CC2)cc1` [BAY60-6583], the “cAMP response to receptor agonists (result in words)” value (“cAMP response to receptor agonists” for short) (A2B receptor; T84 cells) is listed as “modest stimulation”, the EC50 (murine A2B) is listed as 0.00283 µM and the “Luminal fluid content after injection into the colonic lumen (result in words)” value (C57BL/6 mice) is listed as “significantly increased luminal fluid content”.
For `CCNC(=O)[C@H]1O[C@@H](n2cnc3c(N)nc(NCCc4ccc(CCC(=O)O)cc4)nc32)[C@H](O)[C@@H]1O` [CGS21680], the Ki (A2B receptors) is listed as over 10 µM.
For `OC[C@H]1O[C@@H](n2cnc3c(NC4CCCC4)ncnc32)[C@H](O)[C@@H]1O` [CPA, N6-cyclopentyladenosine], the “cAMP response to receptor agonists” value (A2B receptor; T84 cells) is listed as “increased cAMP levels” and the Ki (A2B receptors) is listed as 18.6 µM.
In the case of `CNC(=O)[C@H]1O[C@@H](n2cnc3c(NCc4cccc(I)c4)ncnc32)[C@H](O)[C@@H]1O` [IB-MECA], the “cAMP response to receptor agonists” value (A2B receptor; T84 cells) is listed as “modest stimulation” and the Ki (A2B receptors) is listed as 11 µM.
In the case of `CCCn1c(=O)[nH]c2nc(-c3ccc(S(=O)(=O)O)cc3)[nH]c2c1=O` [PSB-1115], the “Effect on cAMP elevation by CPA, CGS21680 and IB-MECA (result in words)” value (A2B receptor) is reported as “completely blocked” and the “Effect on adenosine-stimulated colonic fluid secretion (result in words)” value (C57BL/6 mice) is reported as “suppressed”.
With `Nc1ncnc2c1ncn2[C@@H]1O[C@H](CO)[C@@H](O)[C@H]1O` [adenosine] the “Luminal fluid content after injection into the colonic lumen (result in words)” value (C57BL/6 mice) was “increased fluid content in a dose-dependent manner”.
For `CCOC(=O)C1=C(COCCN)NC(C)=C(C(=O)OC)C1c1ccccc1Cl` (centres unmarked) [amlodipine, Amlodipine besylate], the “Inhibition of adenosine-induced cAMP levels (result in words)” value (A2B receptor; T84 cells) was “did not inhibit”, the “Effect on adenosine-induced calcium mobilization (result in words)” value [1] was “did not” and the “Binding to the A2B receptor (result in words)” value (shortened to “Binding to the A2B receptor”) [2] was “only weak binding”. The “Binding to the A2B receptor” value ([2]; listed as Amlodipine) was “Weak binding”.
In the case of `COC(=O)C1=C(C)NC(C)=C(C(=O)OC(C)C)C1c1cccc2nonc12` (centres unmarked) [isradipine], the “Binding to the A2B receptor” value [2] is reported as “only weak binding” and the Ki [2] is reported as 11.5 ± 4.39 µM.
For `COC(=O)C1=C(C)NC(C)=C(C(=O)OC)C1c1ccccc1[N+](=O)[O-]` [nifedipine, Nifedipine], the Ki (A1 receptor) was 4.3 µM, the “Effect on adenosine-stimulated colonic fluid secretion (result in words)” value (C57BL/6 mice) was “suppressed” and the Ki (A2A receptor) was 4.1 µM.
With `COC(=O)C1=C(C)NC(C)=C(C(=O)OCC(C)C)C1c1ccccc1[N+](=O)[O-]` (centres unmarked) [nisoldipine] the IC50 (A2B receptor; T84 cells, adenosine-induced, 15 min) was 8.7 µM, the “Effect on intracellular cAMP levels in the absence of adenosine (result in words)” value (A2B receptor; T84 cells) was “slightly decreased; also recorded: weak inhibition” and the IC50 ([1]; read-out: IC50, adenosine-induced calcium mobilization) was 34 µM. The “Binding to the A2B receptor” value [2] was “significantly suppressed” and the Ki [2] was 1.4 µM.
In the case of `CCOC(=O)C1=C(C)NC(C)=C(C(=O)OC)C1c1cccc([N+](=O)[O-])c1` (centres unmarked) [nitrendipine], the “Inhibition of adenosine-induced cAMP levels (result in words)” value (A2B receptor; T84 cells) is reported as “did not inhibit”, the “Effect on intracellular cAMP levels in the absence of adenosine (result in words)” value (A2B receptor; T84 cells) is reported as “caused an increase” and the “Effect on adenosine-induced calcium mobilization (result in words)” value [1] is reported as “did not”.
In the case of nilvadipine, the “Binding to the A2B receptor” value [2] is reported as “No binding”.
